Source: the NIST ThermoML archive (doi:10.1021/je300610y)
± gives the expanded uncertainty stated by the source.

Experiments:
[1] = Crystal; for vapor or sublimation pressure: Transpiration method; for Normal melting temperature: DTA
[2] = Molar enthalpy of transition or fusion; conditions: Crystal; DSC

Compound | vapor or sublimation pressure ([1]; 365.15 K) | vapor or sublimation pressure ([1]; 366.15 K) | vapor or sublimation pressure ([1]; 369.15 K) | vapor or sublimation pressure ([1]; 375.15 K) | vapor or sublimation pressure ([1]; 376.15 K) | vapor or sublimation pressure ([1]; 385.15 K) | vapor or sublimation pressure ([1]; 386.15 K) | vapor or sublimation pressure ([1]; 388.15 K) | vapor or sublimation pressure ([1]; 390.15 K) | vapor or sublimation pressure ([1]; 393.15 K) | Normal melting temperature [1] | Molar enthalpy of transition or fusion [2] | vapor or sublimation pressure ([1]; 387.15 K) | vapor or sublimation pressure ([1]; 389.15 K) | vapor or sublimation pressure ([1]; 391.15 K) | vapor or sublimation pressure ([1]; 395.15 K) | vapor or sublimation pressure ([1]; 397.15 K) | vapor or sublimation pressure ([1]; 399.15 K) | vapor or sublimation pressure ([1]; 384.15 K) | vapor or sublimation pressure ([1]; 380.15 K) | other results
CC(C)c1ccc(NC2=NCCC3(CCCCC3)S2)cc1 | 1.98e-05 ± 2.1e-06 kPa | 2.34e-05 ± 2.5e-06 kPa | 3.21e-05 ± 3.4e-06 kPa | 5.94e-05 ± 6.3e-06 kPa | 7.14e-05 ± 7.6e-06 kPa | 0.0001533 ± 1.6e-05 kPa | 0.0001933 ± 2.1e-05 kPa | 0.0001988 ± 2.1e-05 kPa | 0.0002603 ± 2.8e-05 kPa | 0.0003364 ± 3.6e-05 kPa | 139.6 ± 0.5 °C | 6.98 ± 0.287 kcal/mol |  |  |  |  |  |  |  |  | vapor or sublimation pressure ([1]; 371.15 K): 3.7e-05 ± 4e-06 kPa; vapor or sublimation pressure ([1]; 373.15 K): 4.74e-05 ± 5.1e-06 kPa; vapor or sublimation pressure ([1]; 379.15 K): 8.3e-05 ± 8.8e-06 kPa; vapor or sublimation pressure ([1]; 381.15 K): 0.0001048 ± 1.1e-05 kPa; vapor or sublimation pressure ([1]; 383.15 K): 0.0001249 ± 1.3e-05 kPa
Cc1ccc(NC2=NCCC3(CCCCC3)S2)cc1Cl |  |  |  |  |  | 7.9e-06 ± 9e-07 kPa | 8.8e-06 ± 1e-06 kPa | 1.22e-05 ± 1.3e-06 kPa |  | 1.79e-05 ± 1.9e-06 kPa | 149.2 ± 0.5 °C | 7.93 ± 0.287 kcal/mol | 1.13e-05 ± 1.2e-06 kPa | 1.29e-05 ± 1.4e-06 kPa | 1.59e-05 ± 1.7e-06 kPa | 2.05e-05 ± 2.2e-06 kPa | 2.95e-05 ± 3.2e-06 kPa | 3.31e-05 ± 3.5e-06 kPa |  |  | vapor or sublimation pressure ([1]; 396.15 K): 2.29e-05 ± 2.5e-06 kPa; vapor or sublimation pressure ([1]; 401.15 K): 3.4e-05 ± 3.6e-06 kPa; vapor or sublimation pressure ([1]; 402.15 K): 3.75e-05 ± 4e-06 kPa; vapor or sublimation pressure ([1]; 404.15 K): 4.55e-05 ± 4.9e-06 kPa; vapor or sublimation pressure ([1]; 405.7 K): 5.09e-05 ± 5.4e-06 kPa; vapor or sublimation pressure ([1]; 406.4 K): 5.34e-05 ± 5.7e-06 kPa; vapor or sublimation pressure ([1]; 407.3 K): 6.09e-05 ± 6.5e-06 kPa
FC(F)(F)c1ccc(NC2=NCCC3(CCCCC3)S2)cc1 |  |  |  |  |  | 5.32e-05 ± 5.7e-06 kPa | 5.53e-05 ± 5.9e-06 kPa |  | 8.5e-05 ± 9e-06 kPa | 0.0001076 ± 1.1e-05 kPa | 149.7 ± 0.5 °C | 7.86 ± 0.287 kcal/mol | 6.2e-05 ± 6.6e-06 kPa | 7.35e-05 ± 7.8e-06 kPa |  | 0.0001376 ± 1.5e-05 kPa | 0.0001497 ± 1.6e-05 kPa | 0.0002215 ± 2.3e-05 kPa | 4.95e-05 ± 5.3e-06 kPa |  | vapor or sublimation pressure ([1]; 392.15 K): 9.41e-05 ± 1e-05 kPa; vapor or sublimation pressure ([1]; 394.15 K): 0.0001185 ± 1.3e-05 kPa; vapor or sublimation pressure ([1]; 398.15 K): 0.0001884 ± 2e-05 kPa; vapor or sublimation pressure ([1]; 401.15 K): 0.0002241 ± 2.4e-05 kPa; vapor or sublimation pressure ([1]; 402.15 K): 0.0002762 ± 2.9e-05 kPa; vapor or sublimation pressure ([1]; 403.15 K): 0.0002858 ± 3e-05 kPa
Brc1ccc(NC2=NCCC3(CCCCC3)S2)cc1 [N-(4-bromophenyl)-1-thia-3-azaspiro[5.5]undec-2-en-2-amine] |  |  |  | 7.6e-06 ± 8e-07 kPa |  | 1.92e-05 ± 2.1e-06 kPa |  | 3.2e-05 ± 3.4e-06 kPa |  | 5.5e-05 ± 5.9e-06 kPa | 175.2 ± 0.5 °C | 10.6 ± 0.311 kcal/mol |  |  | 4.17e-05 ± 4.5e-06 kPa | 6.74e-05 ± 7.2e-06 kPa | 7.99e-05 ± 8.5e-06 kPa | 9.5e-05 ± 1e-05 kPa |  | 1.35e-05 ± 1.5e-06 kPa | vapor or sublimation pressure ([1]; 374.15 K): 5.7e-06 ± 6e-07 kPa; vapor or sublimation pressure ([1]; 378.15 K): 1.05e-05 ± 1.1e-06 kPa; vapor or sublimation pressure ([1]; 401.15 K): 0.0001235 ± 1.3e-05 kPa; vapor or sublimation pressure ([1]; 403.15 K): 0.0001454 ± 1.6e-05 kPa; vapor or sublimation pressure ([1]; 405.15 K): 0.0001813 ± 1.9e-05 kPa; vapor or sublimation pressure ([1]; 406.15 K): 0.0002145 ± 2.3e-05 kPa; vapor or sublimation pressure ([1]; 409.15 K): 0.000277 ± 2.9e-05 kPa; vapor or sublimation pressure ([1]; 411.15 K): 0.0003482 ± 3.7e-05 kPa
Clc1ccc(NC2=NCCC3(CCCCC3)S2)cc1 [N-(4-chlorophenyl)-1-thia-3-azaspiro[5.5]undec-2-en-2-amine] |  |  |  |  | 2e-05 ± 2.1e-06 kPa |  |  |  |  | 0.0001487 ± 1.6e-05 kPa | 162.6 ± 0.5 °C | 10 ± 0.311 kcal/mol | 7.69e-05 ± 8.2e-06 kPa | 8.96e-05 ± 9.5e-06 kPa | 0.0001171 ± 1.3e-05 kPa | 0.0001855 ± 2e-05 kPa |  |  | 7.05e-05 ± 7.5e-06 kPa | 3.58e-05 ± 3.8e-06 kPa | vapor or sublimation pressure ([1]; 370.15 K): 1.08e-05 ± 1.2e-06 kPa; vapor or sublimation pressure ([1]; 372.15 K): 1.28e-05 ± 1.4e-06 kPa; vapor or sublimation pressure ([1]; 373.15 K): 1.3e-05 ± 1.4e-06 kPa; vapor or sublimation pressure ([1]; 377.15 K): 2.79e-05 ± 3e-06 kPa; vapor or sublimation pressure ([1]; 383.15 K): 5.41e-05 ± 5.8e-06 kPa; vapor or sublimation pressure ([1]; 398.15 K): 0.0002176 ± 2.3e-05 kPa; vapor or sublimation pressure ([1]; 400.15 K): 0.0002803 ± 3e-05 kPa; vapor or sublimation pressure ([1]; 403.15 K): 0.0003898 ± 4.1e-05 kPa
CCc1ccc(NC2=NCCC3(CCCCC3)S2)cc1 [N-(4-ethylphenyl)-1-thia-3-azaspiro[5.5]undec-2-en-2-amine] |  | 3.45e-05 ± 3.7e-06 kPa |  |  | 0.0001151 ± 1.2e-05 kPa |  | 0.000327 ± 3.5e-05 kPa |  | 0.0004631 ± 4.9e-05 kPa |  | 139.4 ± 0.5 °C | 10.2 ± 0.311 kcal/mol | 0.0003632 ± 3.9e-05 kPa |  |  |  |  |  | 0.0002567 ± 2.7e-05 kPa | 0.0001583 ± 1.7e-05 kPa | vapor or sublimation pressure ([1]; 367.15 K): 4.16e-05 ± 4.4e-06 kPa; vapor or sublimation pressure ([1]; 370.15 K): 5.31e-05 ± 5.7e-06 kPa; vapor or sublimation pressure ([1]; 372.15 K): 7.08e-05 ± 7.5e-06 kPa; vapor or sublimation pressure ([1]; 374.15 K): 8.22e-05 ± 8.8e-06 kPa; vapor or sublimation pressure ([1]; 377.15 K): 0.0001434 ± 1.5e-05 kPa; vapor or sublimation pressure ([1]; 382.15 K): 0.0002134 ± 2.3e-05 kPa; vapor or sublimation pressure ([1]; 392.15 K): 0.000642 ± 6.8e-05 kPa; vapor or sublimation pressure ([1]; 394.15 K): 0.0007981 ± 8.5e-05 kPa
Cc1ccc(NC2=NCCC3(CCCCC3)S2)cc1 [N-(4-methylphenyl)-1-thia-3-azaspiro[5.5]undec-2-en-2-amine] | 3.66e-05 ± 3.9e-06 kPa | 4.54e-05 ± 4.8e-06 kPa | 6.73e-05 ± 7.2e-06 kPa | 0.0001314 ± 1.4e-05 kPa | 0.0001366 ± 1.5e-05 kPa |  |  |  |  |  | 128.1 ± 0.5 °C | 7.1 ± 0.287 kcal/mol |  |  |  |  |  |  | 0.0003508 ± 3.7e-05 kPa | 0.0002336 ± 2.5e-05 kPa | vapor or sublimation pressure ([1]; 353.15 K): 9.4e-06 ± 1e-06 kPa; vapor or sublimation pressure ([1]; 355.15 K): 1.29e-05 ± 1.4e-06 kPa; vapor or sublimation pressure ([1]; 356.15 K): 1.58e-05 ± 1.7e-06 kPa; vapor or sublimation pressure ([1]; 360.15 K): 2.24e-05 ± 2.4e-06 kPa; vapor or sublimation pressure ([1]; 363.15 K): 3.02e-05 ± 3.2e-06 kPa; vapor or sublimation pressure ([1]; 372.15 K): 9.76e-05 ± 1e-05 kPa; vapor or sublimation pressure ([1]; 377.15 K): 0.0001547 ± 1.7e-05 kPa; vapor or sublimation pressure ([1]; 378.15 K): 0.0001852 ± 2e-05 kPa
c1ccc(NC2=NCCC3(CCCCC3)S2)cc1 [N-phenyl-1-thia-3-azaspiro[5.5]undec-2-en-2-amine] | 0.0001035 ± 1.1e-05 kPa |  | 0.0001541 ± 1.6e-05 kPa |  |  |  |  |  |  |  | 113.4 ± 0.5 °C | 5.16 ± 0.263 kcal/mol |  |  |  |  |  |  |  |  | vapor or sublimation pressure ([1]; 342.15 K): 6.9e-06 ± 8e-07 kPa; vapor or sublimation pressure ([1]; 343.15 K): 8.2e-06 ± 9e-07 kPa; vapor or sublimation pressure ([1]; 345.15 K): 1.01e-05 ± 1.1e-06 kPa; vapor or sublimation pressure ([1]; 347.15 K): 1.32e-05 ± 1.4e-06 kPa; vapor or sublimation pressure ([1]; 349.15 K): 1.47e-05 ± 1.6e-06 kPa; vapor or sublimation pressure ([1]; 350.15 K): 1.8e-05 ± 1.9e-06 kPa; vapor or sublimation pressure ([1]; 352.15 K): 2.39e-05 ± 2.6e-06 kPa; vapor or sublimation pressure ([1]; 355.15 K): 3.14e-05 ± 3.4e-06 kPa; vapor or sublimation pressure ([1]; 357.15 K): 4.42e-05 ± 4.7e-06 kPa; vapor or sublimation pressure ([1]; 360.15 K): 6.22e-05 ± 6.6e-06 kPa; vapor or sublimation pressure ([1]; 361.15 K): 6.34e-05 ± 6.8e-06 kPa; vapor or sublimation pressure ([1]; 362.15 K): 9.1e-05 ± 9.7e-06 kPa; vapor or sublimation pressure ([1]; 367.15 K): 0.0001298 ± 1.4e-05 kPa; vapor or sublimation pressure ([1]; 368.15 K): 0.0001351 ± 1.4e-05 kPa
